Read-outs that look alike come from different tables or passages of the source.
Legend:
[1] = Population pharmacokinetic analysis of multidose DAL in adult patients (NONMEM); assay type: in vivo, human
Source text: This prospective/retrospective study was approved by Liguria Territorial Ethics Committee (DALT DRUM Study, Registration number 82/2023—DB id 13014) and carried out from February 2023 to February 2024 at Ente Ospedaliero Ospedali Galliera, Genoa, Italy. Adult patients referred to the Department of Infectious Diseases with documented or suspected Gram-positive infection who failed primary antimicrobial therapy and were prescribed a multidose DAL regimen as a rescue treatment were deemed eligible for inclusion and after signing the informed consent they were enrolled in the study.
To avoid impacting patient lifestyle and routine clinical practice, a sparse sampling strategy was also adopted for outpatients needing blood tests at the convenience of the prescribing physician.
Pharmacokinetic data were analyzed according to a nonlinear mixed-effects modeling approach using NONMEM v7.5 with Pirana modeling workbench, whilst R, version 4.3.2, was used for data formatting and graphical and statistical summaries. No data transformation was applied to PK concentrations prior to the analysis.
From an initial model (one-compartment, first-order elimination with proportional error model), different possible combinations of structural and stochastic models, as well as the inter-individual variability (IIV) of PK parameters were assessed. The effect of several covariates, previously screened for their influence on the PK parameters of the drug under study, was then included in a stepwise manner with backward elimination in the final model. Continuous covariates (age, weight, height, serum albumin, creatinine, creatine clearance, PCR) were centered on their median value and their effect was evaluated by linear and non-linear relationships. Improvement between models was judged based on a decrease in objective function value (OFV) greater than 3.84 units (p < 0.05) using the FOCE-I estimation method, whilst an increase by more than 6.64 units (p < 0.01) upon removal was adopted during backward exclusion. Additionally, during the initial model-building process outliers were detected and excluded from the analysis based on visual examination of data points identified with conditional weighted residuals (CWRES) > 3. To evaluate the influence of outliers, a sensitivity analysis was conducted in which the updated popPK model was run with and without outliers. If a statistically significant change in OFV or in the estimation of key fixed-effects parameters was observed, outliers were considered influential in the modeling steps and commented out.
The predictive performance of the PK models was assessed by appropriateness of the relative standard error (RSE < 30%), graphically by means of classical key diagnostic plots, prediction-corrected visual predictive check (pcVPC), and by inspecting bootstrap results from 1000 resampled datasets. Finally, eta-shrinkage values were calculated to identify and quantify model overfitting.

[2] = parameters: method as in earlier work; conditions: ref 40, 41; cited from earlier work
[3] = cited from earlier work
[4] = tested on: Staphylococcus aureus, Staphylococcus epidermidis, Enterococcus spp. vancomycin-sensitive (VSE), or vancomycin-resistant Van B biofilms; conditions: ref 37, 38; cited from earlier work
Source text: In some instances, TDM ...

[5] = elimination via combination of renal and nonrenal clearance; cited from earlier work
S. aureus = conditions: ref 14; cited from earlier work
[6] = cited from earlier work; remark: listed apart in the source
[7] = bootstrap, 1000 resampled datasets
[8] = final two-compartment popPK model, allometric body weight, 30 adult patients, CLcr > 30 mL/min

Dalbavancin [listing 1 of 2 here]
CL, bootstrap median (CI 5-95%) [1, 7]: 0.0272 (0.0251–0.0294) L/h | Q, bootstrap median (CI 5-95%) [1, 7]: 0.0223 (0.0175–0.02936) L/h | V1, bootstrap median (CI 5-95%) [1, 7]: 3.6 (3.4–3.8) L | V2, bootstrap median (CI 5-95%) [1, 7]: 6.5 (5.6–7.5) L | Q, inter-compartmental clearance, estimate [1, 8]: 0.0225 L/h | V1, central volume of distribution, estimate [1, 8]: 3.6 L | V2, peripheral volume of distribution, estimate [1, 8]: 6.4 L | CL, total body clearance, estimate ([1]; human, in vivo, iv, 1500 mg): 0.0273 L/h | EUCAST/USCAST clinical breakpoint MIC [2]: 0.25 µg/mL | Free fraction of DAL in plasma ([3]; as reported on the label): 7% | Binding to plasma proteins ([3]; ref 5): 93% | Binding to plasma proteins ([3]; ref 28): 93% | Activity in vitro against established biofilms [4]: potent activity | Renal share of elimination (renal clearance) [5]: approximately 45% | Former EUCAST clinical breakpoint of susceptibility (MIC) (S. aureus): 0.125 µg/mL

Dalbavancin [listing 2 of 2 here]
duration of sufficient tissue exposure [6]: 8 weeks

From paper PMC11852064 (Antibiotics, 2025)
